Experimental findings from US20170273985A1, “TRICYCLIC DERIVATIVE” (Sunovion Pharmaceuticals Inc., priority 2014, published 2017) are described below.

The first experiment has as its target PDE1B (Homo sapiens, UniProt Q01064). In words: In vitro HTRF PDE1 inhibition assay (PDE1B). The conditions noted are these: Table 22. Format: biochemical. An excerpt:
An exemplary procedure for the in vitro Homogenous Time Resolved Fluorescence assay, which can be used to determine the inhibitory action of compounds of the invention toward PDE1 or its isoforms, follows. The HTRF PDE1 assay utilized the HTRF (Homogenous Time Resolved Fluorescence) technology, which is based on the competition between unlabeled cyclic nucleotide and cyclic nucleotide labeled with XL665 for the binding to cyclic nucleotide-specific antibody labeled with cryptate. The HTRF signal is thus inversely proportional to the concentration of cyclic nucleotide being measured. Since phosphodiesterases break down cyclic nucleotides the HTRF signal was used to determine PDE activity. The Cisbio cGMP HTRF assay kit (Cat no: 62GM2PEC) was utilized. Cyclic GMP was diluted to 200 nM in HTRF assay buffer (1 mM CaCl2, 10 mM MgCl2, 10 mM Tris-HCl, 0.1% BSA, pH 7.4). 10 μl of compound or DMSO was diluted in 200 nM cyclic GMP solution and added to wells of a 96 well white plate to give 100 nM cyclic GMP in 1% DMSO final concentration. PDE (1A3, 1B or IC) was diluted to 2× working concentration in HTRF assay buffer with 2 μg/ml calmodulin, and 10 μl was added to initiate the reaction. The plate was then incubated for 45 minutes at 37° C. d2-Labelled cyclic GMP and anti-cGMP cryptate were diluted in 50 mM phosphate buffer, 0.8 M KF, 1% Triton X100, 0.2% BSA, pH 7.0. Following incubation 10 μl d2-cGMP, then 10 μl anti cGMP cryptate were added to each well and the plate was incubated for 45 minutes at room temperature. The plate was then read on Perkin Elmer Victor at 2 different FRET readings ex/emm 340 nm/665 nm and 340 nm/615 nm. Compounds having an IC50 of <1 μM, are denoted as +++. Compounds having an IC50 of 1−10 μM, are denoted as ++. Compounds having an IC50 of 10-100 μM, are denoted as +.
Broadly, the IC50 is the concentration needed to halve the response being measured. Read a low IC50 as higher potency. Take “2-(4-chlorophenyl)-8-isopropyl-2H-imidazo[1,5-f]oxazolo[2,3-c][1,2,4]triazin-5(3H)-one [Example 133]”: the IC50 is < 1000 nM. Same read-out and setting: the same measure for `CCCN1c2nn3c(C4CCOCC4)ncc3c(=O)n2CC1c1ccc(OC)cc1` (racemic) [Example 67]: < 1000 nM; for `CN1c2nn3c(C4CCOCC4)ncc3c(=O)n2CC1c1ccc(Cl)cc1` (racemic) [Example 68]: < 1000 nM; for `CCc1ccc(C2Cn3c(nn4c(C(C)C)ncc4c3=O)N2CC)cn1` (single isomer, unassigned) [Example 94]: < 1000 nM. Still for that read-out and setting: with `CC(C)c1ncc2c(=O)n3c(nn12)N(Cc1ccccc1)CCC3` [Example 2, 1-Benzyl-9-isopropyl-1,2,3,4-tetrahydro-6H-imidazo[5,1-f]pyrimido[2,1-c][1,2,4]triazin-6-one] the figure was < 1000 nM; with `CC(C)c1ncc2c(=O)n3c(nn12)N(CC1CCOCC1)C(C)CC3` (stereo not shown) [Example 3, 11-Methyl-10-(oxan-4-ylmethyl)-6-(propan-2-yl)-1,5,7,8,10-pentaazatricyclo[7,4,0,0,3,7]trideca-3,5,8-trien-2-one], < 1000 nM; with `CC(C)c1ncc2c(=O)n3c(nn12)N(CCC1CCOCC1)CC3` [Example 4], < 1000 nM. The same measure, in the same setting: the same measure for `CC(C)c1ncc2c(=O)n3c(nn12)N(CCCC1CCOCC1)CC3` [Example 5]: < 1000 nM; for `COCCCN1CCn2c1nn1c(C(C)C)ncc1c2=O` [Example 6]: < 1000 nM. As to `COCCCCN1CCn2c1nn1c(C(C)C)ncc1c2=O` [Example 7], the IC50 was < 1000 nM. Consider `COCCCCCN1CCn2c1nn1c(C(C)C)ncc1c2=O` [Example 8], for which the IC50 is < 1000 nM. Regarding `CC(C)c1ncc2c(=O)n3c(nn12)N(CCc1ccccn1)CC3` [Example 10], the concentration for half-maximal inhibition (IC50) is < 1000 nM. As for `CC(C)c1ncc2c(=O)n3c(nn12)N(CCCc1cccnc1)CC3` [Example 12], the IC50 is < 1000 nM. On to `CC(C)c1ncc2c(=O)n3c(nn12)N(CCCc1ccncc1)CC3` [Example 13], for which the IC50 was < 1000 nM. As to `CC(C)c1ncc2c(=O)n3c(nn12)N(C)CCC3` [Example 14], the IC50 is < 1000 nM. In the case of `CCCN1CCCn2c1nn1c(C(C)C)ncc1c2=O` [Example 15], the IC50 was < 1000 nM. Consider `CCCCN1CCCn2c1nn1c(C(C)C)ncc1c2=O` [Example 17], for which the IC50 was < 1000 nM. With `CCCCCN1CCCn2c1nn1c(C(C)C)ncc1c2=O` [Example 18], the IC50 is < 1000 nM. Regarding `CC(C)CCN1CCCn2c1nn1c(C(C)C)ncc1c2=O` [Example 19], the IC50 is < 1000 nM. Still for that read-out and setting: the same measure for `CC(C)c1ncc2c(=O)n3c(nn12)N(CCC1CC1)CCC3` [Example 20]: < 1000 nM; for `CC(C)c1ncc2c(=O)n3c(nn12)N(CCC1CCC(F)(F)CC1)CCC3` [Example 21]: < 1000 nM; for `CC(C)c1ncc2c(=O)n3c(nn12)N(CCOC(F)(F)F)CCC3` [Example 22]: < 1000 nM.

Consider `COCCN1CCCn2c1nn1c(C(C)C)ncc1c2=O` [Example 23], for which the IC50 is < 1000 nM.

For the compound `CC(C)c1ncc2c(=O)n3c(nn12)N(CCN1CCOCC1)CCC3` [Example 26], the IC50 was < 1000 nM.

Regarding `CC(C)c1ncc2c(=O)n3c(nn12)N(CCCN1CCOCC1)CCC3` [Example 27], the IC50 was < 1000 nM. For `CC(C)c1ncc2c(=O)n3c(nn12)N(CC(=O)N1CCOCC1)CCC3` [Example 28], the IC50 fell in the range of 1000 to 10000 nM. Take `CC(C)c1ncc2c(=O)n3c(nn12)N(CCCC1CCOCC1)CCC3` [Example 29]: the IC50 was < 1000 nM. With `CC(C)c1ncc2c(=O)n3c(nn12)N(Cc1ccc(Cl)cc1)CCC3` [Example 31], the IC50 was < 1000 nM. Still for that read-out and setting: the same measure for `CC(C)c1ncc2c(=O)n3c(nn12)N(Cc1cccc(C(F)(F)F)c1)CCC3` [Example 32]: < 1000 nM; for `CC(C)c1ncc2c(=O)n3c(nn12)N(Cc1cccc(Cl)c1)CCC3` [Example 33]: < 1000 nM; for `CC(C)c1ncc2c(=O)n3c(nn12)N(Cc1ccc(C(F)(F)F)cc1)CCC3` [Example 34]: < 1000 nM.

With `CC(C)c1ncc2c(=O)n3c(nn12)N(Cc1ccncc1)CCC3` [Example 35], the IC50 is < 1000 nM. For `CC(C)c1ncc2c(=O)n3c(nn12)N(Cc1cccnc1)CCC3` [Example 36], the IC50 was < 1000 nM. As to `CC(C)c1ncc2c(=O)n3c(nn12)N(Cc1cccc(C#N)c1)CCC3` [Example 37], the IC50 was < 1000 nM. With `CC(C)c1ncc2c(=O)n3c(nn12)N(CCc1ccc(C#N)cc1)CCC3` [Example 38], the IC50 was < 1000 nM. Same read-out and setting: with `CC(C)c1ncc2c(=O)n3c(nn12)N(CCCc1ccncc1)CCC3` [Example 39] the figure was < 1000 nM.

Take `CC(C)c1ncc2c(=O)n3c(nn12)N(CCCc1cccnc1)CCC3` [Example 40]: the IC50 was < 1000 nM.

`CC(C)c1ncc2c(=O)n3c(nn12)N(CCc1ccncc1)CCC3` [Example 41]: the IC50 was < 1000 nM. On to `CC(C)c1ncc2c(=O)n3c(nn12)N(CCc1cccnc1)CCC3` [Example 42], for which the IC50 is < 1000 nM. Regarding `CC(C)c1ncc2c(=O)n3c(nn12)N(CCc1ccccc1F)CCC3` [Example 43], the IC50 was < 1000 nM. On the same count and under the same terms, the same measure for `CC(C)c1ncc2c(=O)n3c(nn12)N(CCc1cccc(F)c1)CCC3` [Example 44]: < 1000 nM. In the case of `CC(C)c1ncc2c(=O)n3c(nn12)N(CCc1ccc(F)cc1)CCC3` [Example 45], the IC50 is < 1000 nM.

Turning to `CC(C)c1ncc2c(=O)n3c(nn12)N(CCCc1ccccc1F)CCC3` [Example 46], the IC50 is < 1000 nM. `CC(C)c1ncc2c(=O)n3c(nn12)N(CCCc1ccc(F)cc1)CCC3` [Example 47]: the IC50 was < 1000 nM. As for `COc1ccccc1CCCN1CCCn2c1nn1c(C(C)C)ncc1c2=O` [Example 48], the IC50 was < 1000 nM. As to `COc1cccc(CCCN2CCCn3c2nn2c(C(C)C)ncc2c3=O)c1` [Example 49], the IC50 is < 1000 nM. `COc1ccc(CCCN2CCCn3c2nn2c(C(C)C)ncc2c3=O)cc1` [Example 50]: the IC50 is 1000 to 10000 nM.

Consider `CC(C)c1ncc2c(=O)n3c(nn12)N(CC1CCOCC1)CCCC3` [Example 51], for which the 50% inhibitory concentration (IC50) was < 1000 nM. For the compound `CC(C)c1ncc2c(=O)n3c(nn12)N(Cc1ccc(C#N)cc1)CCCC3` [Example 52], the IC50 was < 1000 nM. Same read-out and setting: with `CCCCN1CCn2c1nn1c(C3CCOCC3)ncc1c2=O` [Example 53] the figure was < 1000 nM; with `O=c1c2cnc(C3CCOCC3)n2nc2n1CCN2CCC1CCCC1` [Example 54], < 1000 nM. Turning to `O=c1c2cnc(C3CCOCC3)n2nc2n1CCN2CCc1ccc(F)cc1` [Example 57], the IC50 was < 1000 nM. Still for that read-out and setting: with `N#Cc1ccc(CCN2CCn3c2nn2c(C4CCOCC4)ncc2c3=O)cc1` [Example 58] the figure was < 1000 nM. Turning to `N#Cc1cccc(CN2CCCn3c2nn2c(C4CCOCC4)ncc2c3=O)c1` [Example 60], the IC50 is < 1000 nM. Still for that read-out and setting: the same measure for `N#Cc1ccc(CN2CCCn3c2nn2c(C4CCOCC4)ncc2c3=O)cc1` [Example 61]: 1000 to 10000 nM.

For the compound `O=c1c2cnc(C3CCOCC3)n2nc2n1CCCN2CCc1ccccc1` [Example 62], the IC50 was < 1000 nM. On to `O=c1c2cnc(C3CCOCC3)n2nc2n1CCCN2CCCc1ccccc1` [Example 63], for which the IC50 was < 1000 nM.

The experiment is the same for the next values; noted with them: Table 25.
Take `O=c1c2cnc(C3CCOCC3)n2nc2n1CCN2CC1CC1(F)F` (racemic) [Example 176]: the IC50 was < 1000 nM.
